Source: PMC7144022, “Quinolinecarboxamides Inhibit the Replication of the Bovine Viral Diarrhea Virus by Targeting a Hot Spot for the Inhibition of Pestivirus Replication in the RNA-Dependent RNA Polymerase” (Molecules, 2020)

What was measured:
[1] = Cytotoxicity assay, proliferation of exponentially growing MDBK cells (MTS/PMS); format: cell-based, bovine; conditions: bovine
Experimental: Assays were carried out, as described previously.

BVDV NADL virus = assay: CPE-based antiviral assay, BVDV NADL in MDBK cells (MTS/PMS); conditions: for EC50: Bovine viral diarrhea virus isolates and strains, MDBK, 72 h; for S.I.: selectivity index, CC50 vs EC50
[2] = sheet CSFCII#, potency relative to TO502-2403 (EC50 0.2 µM)
[3] = sheet CSFCI#, potency relative to TO505-6180 (EC50 0.07 µM)

| Compound | CC50 at 5 days [1] | EC50 (BVDV NADL virus) | S.I. (BVDV NADL virus) | fold increase (BVDV NADL virus; [2]) | fold increase (BVDV NADL virus; [3]) |
| --- | --- | --- | --- | --- | --- |
| O=C(Nc1ccn(-c2ccc(F)cc2)n1)c1cc(-c2cccnc2)nc2ccccc12 [CSFC-129, Fc1ccc(cc1)n2ccc(n2)NC(=O)c4cc(nc3ccccc34)c5cccnc5] | 68 µM | 1400 nM | 49 | 0.14 | – |
| COc1ccc2nc(NC(=O)c3cc(-c4ccco4)nc4ccc(Cl)cc34)sc2c1 [CSFC-81, Clc1cc2c(cc1)nc(cc2C(=O)Nc3nc4ccc(cc4s3)OC)c5ccco5] | > 100 µM | 24500 nM | 4 | 0.00816 | – |
| O=C(Nc1ccn(-c2ccccc2)n1)c1cc(-c2cccc(F)c2)nc2ccccc12 [CSFC-69, Fc1cccc(c1)c3nc2ccccc2c(c3)C(=O)Nc4ccn(n4)c5ccccc5] | > 100 µM | 100 nM | 1000 | 2.00 | – |
| O=C(Nc1nc2ccc([N+](=O)[O-])cc2s1)c1cc(-c2ccccc2)nc2ccccc12 [CSFC-12, [O-][N+](=O)c1ccc2nc(NC(=O)c3cc(nc4ccccc43)c3ccccc3)sc2c1] | 46.8 µM | > 100000 nM | 0.5 | – | 0.0007 |
| Cc1ccc(-c2cc(C(=O)Nc3nc4c(C)cccc4s3)c3ccccc3n2)cc1 [CSFC-120, Cc1ccc(cc1)c3nc2ccccc2c(c3)C(=O)Nc4nc5c(C)cccc5s4] | > 100 µM | 200 nM | 500 | 1.00 | – |
| Cc1cc(C)c2nc(-c3ccco3)cc(C(=O)Nc3nc4c(C)cccc4s3)c2c1 [CSFC-75, Cc5cc1c(nc(cc1C(=O)Nc2nc3c(C)cccc3s2)c4ccco4)c(C)c5] | > 100 µM | 5300 nM | 19 | 0.0377 | – |
| COc1ccc2nc(NC(=O)c3cc(-c4ccco4)nc4ccc(OC(F)(F)F)cc34)sc2c1 [CSFC-77, FC(F)(F)Oc1cc2c(cc1)nc(cc2C(=O)Nc3nc4ccc(cc4s3)OC)c5ccco5] | > 100 µM | 100000 nM | 1 | 0.002 | – |
| Cc1cccc2sc(NC(=O)c3cc(-c4ccccc4)nc4ccccc34)nc12 [CSFC-1, Cc1cccc2sc(nc12)NC(=O)c1cc(nc2ccccc21)c1ccccc1] | > 100 µM | 300 nM | 333 | – | 0.23 |
| CS(=O)(=O)c1ccc2nc(NC(=O)c3cc(-c4ccccc4)nc4ccccc34)sc2c1 [CSFC-56, CS(=O)(=O)c1ccc2nc(sc2c1)NC(=O)c4cc(nc3ccccc34)c5ccccc5] | > 100 µM | 100000 nM | 1 | 0.002 | – |
| O=C(Nc1ccn(-c2cccc(F)c2)n1)c1cc(-c2ccccc2)nc2ccccc12 [CSFC-126, Fc1cccc(c1)n2ccc(n2)NC(=O)c4cc(nc3ccccc34)c5ccccc5] | > 100 µM | 600 nM | 167 | 0.33 | – |
| O=C(Nc1nc2c(F)cccc2s1)c1cc(-c2ccccc2)nc2ccccc12 [CSFC-150, Fc1cccc2sc(nc12)NC(=O)c1cc(nc2ccccc21)c1ccccc1] | 8 ± 1 µM | 100 nM | 80 | – | 0.70 |
| O=C(Nc1ccn(-c2ccccc2)n1)c1cc(-c2ccccc2Cl)nc2ccccc12 [CSFC-111, Clc1ccccc1c3nc2ccccc2c(c3)C(=O)Nc4ccn(n4)c5ccccc5] | > 100 µM | 400 nM | 250 | 0.50 | – |
| Cc1noc(C)c1NC(=O)c1cc(-c2ccccc2)nc2ccccc12 [CSFC-36, O=C(Nc1c(C)onc1C)c3cc(nc2ccccc23)c4ccccc4] | > 100 µM | 47200 nM | 2 | 0.00424 | – |
| O=C(Nc1ccn(-c2ccccc2)n1)c1cc(-c2ccco2)nc2ccccc12 [CSFC-44, O=C(Nc1ccn(n1)c2ccccc2)c4cc(nc3ccccc34)c5ccco5] | 23 µM | 2300 nM | 10 | 0.09 | – |
| Cc1cccc2sc(NC(=O)c3cc(-c4cc5ccccc5o4)nc4ccccc34)nc12 [CSFC-90, Cc1cccc2sc(nc12)NC(=O)c4cc(nc3ccccc34)c5cc6ccccc6o5] | > 100 µM | 3000 nM | 33 | 0.07 | – |
| COc1ccc2nc(NC(=O)c3cc(-c4ccco4)nc4ccc(OC)cc34)sc2c1 [CSFC-64, O=C(c2cc(nc1ccc(OC)cc12)c3ccco3)Nc4nc5ccc(cc5s4)OC] | > 100 µM | 16000 nM | 6 | 0.0125 | – |
| Cc1csc(-c2cc(C(=O)Nc3nc4c(C)cccc4s3)c3ccccc3n2)c1 [CSFC-50, Cc1cc(sc1)c3nc2ccccc2c(c3)C(=O)Nc4nc5c(C)cccc5s4] | > 100 µM | 1900 nM | 53 | 0.11 | – |
| O=C(Nc1ccn(-c2ccccc2)n1)c1cc(-c2cccc3ccccc23)nc2ccccc12 [CSFC-143, O=C(c2cc(nc1ccccc12)c4cccc3ccccc34)Nc5ccn(n5)c6ccccc6] | > 100 µM | 100 nM | 1000 | 2.00 | – |

| Compound | CC50 at 5 days [1] | EC50 (BVDV NADL virus) | S.I. (BVDV NADL virus) | fold increase (BVDV NADL virus; [2]) | fold increase (BVDV NADL virus; [3]) |
| --- | --- | --- | --- | --- | --- |
| O=C(Nc1nc2c(Cl)cccc2s1)c1cc(-c2ccccc2)nc2ccccc12 [CSFC-15, Clc1cccc2sc(nc21)NC(=O)c1cc(nc2ccccc21)c1ccccc1] | > 100 µM | 800 nM | 125 | – | 0.09 |
| Cc1ccc2nc(NC(=O)c3cc(O)nc4ccccc34)sc2c1 [CSFC-31, Oc1nc2ccccc2c(c1)C(=O)Nc1nc2ccc(C)cc2s1] | > 100 µM | > 100000 nM | 1 | – | 0.0007 |
| Cc1cccc2sc(NC(=O)c3cc(-c4ccsc4)nc4ccccc34)nc12 [CSFC-78, Cc1cccc2sc(nc12)NC(=O)c4cc(nc3ccccc34)c5ccsc5] | > 100 µM | 100 nM | 1000 | 2.00 | – |
| O=C(Nc1ccn(-c2ccccc2)n1)c1cc(-c2cccs2)nc2c(F)cccc12 [CSFC-100, O=C(Nc1ccn(n1)c2ccccc2)c4cc(nc3c(F)cccc34)c5cccs5] | > 100 µM | 50 nM | 2000 | 4.00 | – |
| Cc1cccc2sc(NC(=O)c3cc(-c4cccs4)nc4c(F)cccc34)nc12 [CSFC-101, Fc5cccc1c5nc(cc1C(=O)Nc2nc3c(C)cccc3s2)c4cccs4] | 23.2 µM | 300 nM | 77 | 0.67 | – |
| COc1ccc(NC(=O)c2cc(-c3ccccc3)nc3ccccc23)cc1 [CSFC-139, COc1ccc(cc1)NC(=O)c1cc(nc2ccccc12)c1ccccc1] | > 100 µM | > 100000 nM | 1 | – | 0.0007 |
| Cc1cccc2sc(NC(=O)c3cc(-c4ccco4)nc4ccc(C(F)(F)OF)cc34)nc12 [CSFC-79, FC(F)(OF)c1cc2c(cc1)nc(cc2C(=O)Nc1nc2c(C)cccc2s1)c1ccco1] | > 100 µM | 2500 nM | 40 | 0.08 | – |
| O=C(Nc1ccn(-c2cc(F)cc(F)c2)n1)c1cc(-c2ccccc2)nc2ccccc12 [CSFC-144, Fc1cc(F)cc(c1)n2ccc(n2)NC(=O)c4cc(nc3ccccc34)c5ccccc5] | > 100 µM | 20 nM | – | 10.00 | – |
| Cc1cc(NC(=O)c2cc(-c3ccco3)nc3ccccc23)on1 [CSFC-42, O=C(Nc1cc(C)no1)c3cc(nc2ccccc23)c4ccco4] | > 100 µM | 17500 nM | 6 | 0.0114 | – |
| Cc1cc(NC(=O)c2cc(-c3ccccc3)nc3ccccc23)no1 [CSFC-40, Cc1cc(no1)NC(=O)c3cc(nc2ccccc23)c4ccccc4] | > 100 µM | 94000 nM | 1 | 0.00213 | – |
| Cc1cccc2sc(NC(=O)c3cc(-c4cccs4)nc4c(Cl)cccc34)nc12 [CSFC-98, Clc5cccc1c5nc(cc1C(=O)Nc2nc3c(C)cccc3s2)c4cccs4] | > 100 µM | 200 nM | 500 | 1.00 | – |
| COc1cccc2sc(NC(=O)c3cc(-c4cccs4)nc4ccccc34)nc12 [CSFC-89, COc1cccc2sc(nc12)NC(=O)c4cc(nc3ccccc34)c5cccs5] | > 100 µM | 600 nM | 167 | 0.33 | – |
| Cc1cccc2sc(NC(=O)c3cc(-c4cc(Cl)sc4Cl)nc4ccccc34)nc12 [CSFC-85, Clc1cc(c(Cl)s1)c3nc2ccccc2c(c3)C(=O)Nc4nc5c(C)cccc5s4] | > 100 µM | 300 nM | 333 | 0.67 | – |
| Cc1csc(-c2cc(C(=O)Nc3ccn(-c4ccccc4)n3)c3ccccc3n2)c1 [CSFC-52, Cc1cc(sc1)c3nc2ccccc2c(c3)C(=O)Nc4ccn(n4)c5ccccc5] | > 100 µM | 1200 nM | 83 | 0.17 | – |
| O=C(Nc1ccn(-c2ccccc2)n1)c1cc(-c2ccncc2)nc2ccccc12 [CSFC-121, O=C(Nc1ccn(n1)c1ccccc1)c1cc(nc2ccccc21)c1ccncc1] | > 100 µM | 100000 nM | 1 | 0.002 | – |
| O=C(Nc1nc2ccc(Cl)cc2s1)c1cc(-c2ccccc2)nc2ccccc12 [CSFC-10, Clc1ccc2nc(NC(=O)c3cc(nc4ccccc43)c3ccccc3)sc2c1] | > 100 µM | 500 nM | 200 | – | 0.14 |
| Cc1ccc(-c2cc(C(=O)Nc3ccn(-c4ccccc4)n3)c3ccccc3n2)o1 [CSFC-51, Cc1ccc(o1)c3nc2ccccc2c(c3)C(=O)Nc4ccn(n4)c5ccccc5] | > 100 µM | 15200 nM | 7 | 0.0132 | – |
| Cc1cccc2sc(NC(=O)c3cc(-c4ccco4)nc4ccc(Cl)cc34)nc12 [CSFC-84, Clc1cc2c(cc1)nc(cc2C(=O)Nc3nc4c(C)cccc4s3)c5ccco5] | > 100 µM | 11500 nM | 9 | 0.0174 | – |
